For orientation: bioavailability means the share of a dose that reaches the circulation, judged against a reference dose that is usually intravenous. High values mean much systemic uptake, low ones little systemic uptake.

The source of these data is ChEMBL document CHEMBL2086382, “From bradykinin B2 receptor antagonists to orally active and selective bradykinin B1 receptor antagonists” (J Med Chem, 2012).

What all share (settings): in vivo
Data set [1] in a line: Oral bioavailability in Swiss mouse at 5 mg/kg. It is filed as ADME, organism-based.
Data set [2] in a line: Volume of distribution in Swiss mouse at 5 mg/kg, po and 1 mg/kg, iv. In kind it is ADME, organism-based.
Data set [3] can be described thus: Volume of distribution in Beagle dog at 5 mg/kg, po and 1 mg/kg, iv. It is filed as ADME, organism-based, Canis lupus familiaris.
A short description of data set [4]: Volume of distribution in Sprague-Dawley rat at 10 mg/kg, po and 1 mg/kg, iv. It is filed as ADME, organism-based.
Data set [5] can be described thus: Oral bioavailability in Beagle dog at 5 mg/kg. It is filed as ADME, organism-based, Canis lupus familiaris.
A short description of data set [6]: Oral bioavailability in Sprague-Dawley rat at 10 mg/kg. It is filed as ADME, organism-based.

Structures are written as SMILES.

`COc1cc(C)c(S(=O)(=O)N(C)CCOCC(=O)N2CCN([C@@H]3CN4CCC3CC4)CC2)c(C)c1` registered a bioavailability in data set [1] of 6.7%. In data set [2], the Vd was 1 L/kg.

Consider `COc1cc(C)c(S(=O)(=O)N(C)CCOCC(=O)N2CCN(C3CCN(C)CC3)CC2)c(C)c1`, for which the figures for the bioavailability in data set [1], in data set [5] and in data set [6] were 22%, 43% and 18%, respectively. In addition, the Vd came to 2.7 L/kg in data set [3], 1.5 L/kg in data set [4] and 1.3 L/kg in data set [2].

Take `CCN1CCC(N2CCN(C(=O)COCCN(C)S(=O)(=O)c3c(C)cc(OC)cc3C)CC2)CC1`: the Vd in data set [4] was 3.8 L/kg. In data set [6], this molecule showed a bioavailability of 12%.

In turn, `COc1cc(C)c(S(=O)(=O)N(C)CCOCC(=O)N2CCN(CC3CCN(C)CC3)CC2)c(C)c1` returned a Vd in data set [4] of 3.5 L/kg. The molecule also came in with a bioavailability in data set [6] of 16%.

In data set [4], `COc1cc(C)c(S(=O)(=O)N(C)CCOCC(=O)N2CCC(C(C)(C)CN(C)C)CC2)c(C)c1` showed a Vd of 0.5 L/kg. Moreover, the bioavailability in data set [6] turned out to be 3.8%.

Turning to `COc1cc(C)c(S(=O)(=O)N(C)CCOCC(=O)N2CCC(CCN(C)C)CC2)c(C)c1`, the bioavailability came out at 38% in data set [1] and 19% in data set [6]. Further, the Vd amounted to 0.79 L/kg in data set [4] and 0.5 L/kg in data set [2].

`COc1cc(C)c(S(=O)(=O)N(C)CCOCC(=O)N2CCC(N3CCN(C)CC3)CC2)c(C)c1` returned a Vd in data set [4] of 0.6 L/kg. In addition, the bioavailability in data set [6] was 6%.

In the case of `COc1cc(C)c(S(=O)(=O)N(C)CCOCC(=O)N2CCC(C3CCN(C)CC3)CC2)c(C)c1`, in data set [4], the Vd worked out at 0.6 L/kg. In data set [6], this molecule displayed a bioavailability of 12.3%.

For the molecule `COc1cc(C)c(S(=O)(=O)N(C)CCOCC(=O)N(C)Cc2ccc(C3=NCCN3)cc2)c(C)c1` [SAFOTIBANT], the bioavailability was 12% in data set [1] and 0.3% in data set [6]. In addition, the Vd in data set [4] was determined as 1.4 L/kg; in data set [2], 2.6 L/kg.
